Experiments:
[1] = Toxicity in BALB/c nude mouse xenografted with human HeLa cells assessed as lethality at 15 to 60 mg/kg, IG administered daily for 30 days and measured every 2 days; type: organism-based; settings: in vivo, po, 720 h, dose 15-60 mg/kg, time 30 day
[2] = system: HeLa; assay: Induction of apoptosis in human HeLa cells assessed as viable cells at 2.5 uM incubated for 36 hrs by Annexin V-FITC/PI staining based flow cytometric analysis (reference value: 96.14 %); type: functional; settings: read-out: Activity
[3] = system: HeLa; assay: Induction of apoptosis in human HeLa cells assessed as dead cells at 1.25 uM incubated for 36 hrs by Annexin V-FITC/PI staining based flow cytometric analysis (reference value: 0.44 %); type: functional
[4] = system: NCI-H446; assay: Antiproliferative activity against PTEN-null human NCI-H446 cells assessed as inhibition of cell growth incubated for 48 to 72 hrs by MTT assay; type: functional, cell-based
[5] = Toxicity in BALB/c nude mouse xenografted with human HeLa cells assessed as pathological changes in heart at 60 mg/kg, IG administered daily for 30 days by hematoxylin and eosin staining based microscopic analysis; type: organism-based; settings: in vivo, po, 720 h, time 30 day
[6] = system: SW-620; assay: Induction of cell cycle arrest in human SW620 cells assessed as accumulation of cells at G0/G1 phase measured after 24 hrs by propidium iodide staining based flow cytometry analysis; type: functional; settings: dose 0.15625-2.5 µM, DDE = dose-dependent effect
[7] = system: HeLa; assay: Inhibition of PI3K/mTOR signalling pathway in human HeLa cells assessed as inhibition of S6 protein phosphorylation incubated for 24 hrs by Western blot analysis; type: cell-based; settings: dose 0.3125-2.5 µM, DDE = dose-dependent effect
[8] = system: HT-29; assay: Antiproliferative activity against human HT-29 cells with PIK3CA mutation assessed as inhibition of cell growth incubated for 48 to 72 hrs by MTT assay; type: functional, cell-based
[9] = target: Serine/threonine-protein kinase mTOR (Homo sapiens, UniProt P42345); assay: Inhibition of N-terminal FLAG-tagged recombinant human mTOR (1362 to end residue) using ULight-4EBP1 peptide as substrate incubated for 30 mins in presence of ATP by Lance ultra assay
[10] = target: Phosphatidylinositol 4,5-bisphosphate 3-kinase catalytic subunit beta isoform (Homo sapiens, UniProt P42338); assay: Inhibition of PI3Kbeta (unknown origin) using PIP2 as substrate incubated for 1 hr in presence of ATP by Kinase Glo luminescence assay
Phosphatidylinositol 4,5-bisphosphate 3-kinase catalytic subunit beta isoform, sequence (P42338 whole entry, canonical isoform): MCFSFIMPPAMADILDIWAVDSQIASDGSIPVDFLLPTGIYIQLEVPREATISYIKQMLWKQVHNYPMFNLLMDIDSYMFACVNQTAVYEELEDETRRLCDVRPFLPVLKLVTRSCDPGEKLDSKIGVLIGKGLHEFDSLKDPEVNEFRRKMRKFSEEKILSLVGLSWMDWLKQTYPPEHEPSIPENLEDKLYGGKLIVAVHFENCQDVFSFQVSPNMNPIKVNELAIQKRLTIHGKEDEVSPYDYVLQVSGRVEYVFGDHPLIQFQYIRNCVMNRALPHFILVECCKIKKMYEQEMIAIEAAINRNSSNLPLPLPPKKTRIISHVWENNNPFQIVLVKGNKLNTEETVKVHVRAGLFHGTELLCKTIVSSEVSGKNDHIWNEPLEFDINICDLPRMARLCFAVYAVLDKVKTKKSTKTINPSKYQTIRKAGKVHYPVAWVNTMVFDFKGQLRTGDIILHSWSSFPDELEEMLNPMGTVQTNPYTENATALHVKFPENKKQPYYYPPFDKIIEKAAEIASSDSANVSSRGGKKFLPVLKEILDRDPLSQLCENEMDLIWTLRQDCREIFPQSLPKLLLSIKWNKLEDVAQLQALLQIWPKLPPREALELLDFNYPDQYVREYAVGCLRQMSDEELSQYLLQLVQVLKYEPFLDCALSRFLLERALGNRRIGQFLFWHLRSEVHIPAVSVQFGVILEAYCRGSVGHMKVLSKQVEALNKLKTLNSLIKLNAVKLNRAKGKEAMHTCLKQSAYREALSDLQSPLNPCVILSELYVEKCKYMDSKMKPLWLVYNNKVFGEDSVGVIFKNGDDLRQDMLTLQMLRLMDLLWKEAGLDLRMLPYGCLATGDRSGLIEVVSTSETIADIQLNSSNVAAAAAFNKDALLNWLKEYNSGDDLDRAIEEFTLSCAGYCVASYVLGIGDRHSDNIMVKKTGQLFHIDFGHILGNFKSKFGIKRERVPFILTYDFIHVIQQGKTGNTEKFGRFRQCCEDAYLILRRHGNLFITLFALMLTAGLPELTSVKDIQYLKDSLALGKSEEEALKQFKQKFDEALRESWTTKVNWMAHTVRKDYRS

Cc1nc2cnc3ccc(-c4cnc5[nH]ccc5c4)cc3c2n1-c1ccc(C(C)(C)C#N)nc1
Activity [1]: Non-Toxic
viability at 2.5 µM [2]: 27.8%
Activity [3]: 7.4%
IC50 [4]: 970 nM
Activity [5]: Non-Toxic
Activity [6]: Dde
inhibition [7]: Dde
IC50 [8]: 250 nM
IC50 [9]: 21.3 nM
IC50 [10]: 108 nM
